From ChEMBL document CHEMBL1201862, “PubChem BioAssay data set” (2004)
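A five-concentration, 48-hour dose response in 96-well plates underlies each endpoint, interpolated linearly between surrounding concentrations. GI50 is the concentration that inhibits growth by half.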 Active and inactive are the calls of the source. Rule as the data show it: active = GI50 up to about 1.1 µM and inactive = higher.

Columns and labels:
Assay in all cases: NCI-60 cell line screen, 48 h
786-0 = test system: 786-0
A498 = test system: A498
A549 = test system: A549
ACHN = test system: ACHN
BT-549 = test system: BT-549
CAKI-1 = test system: CAKI-1
CCRF-CEM = test system: CCRF-CEM
COLO 205 = test system: COLO 205
DU-145 = test system: DU-145
HCC 2998 = test system: HCC 2998
HCT-116 = test system: HCT-116
HCT-15 = test system: HCT-15
HOP-62 = test system: HOP-62
HOP-92 = test system: HOP-92
HT-29 = test system: HT-29
Hs-578T = test system: Hs-578T
IGROV-1 = test system: IGROV-1
K562 = test system: K562
KM12 = test system: KM12
M14 = test system: M14
MCF7 = test system: MCF7
MDA-MB-231 = test system: MDA-MB-231
MDA-MB-435 = test system: MDA-MB-435
MOLT-4 = test system: MOLT-4
Malme-3M = test system: Malme-3M
NCI-H226 = test system: NCI-H226
NCI-H23 = test system: NCI-H23
NCI-H460 = test system: NCI-H460
NCI-H522 = test system: NCI-H522
NCI/ADR-RES = test system: NCI/ADR-RES
OVCAR-3 = test system: OVCAR-3
OVCAR-4 = test system: OVCAR-4
OVCAR-5 = test system: OVCAR-5
OVCAR-8 = test system: OVCAR-8
PC-3 = test system: PC-3
RPMI-8226 = test system: RPMI-8226
RXF 393 = test system: RXF 393
SF-268 = test system: SF-268
SF-295 = test system: SF-295
SF-539 = test system: SF-539
SK-MEL-28 = test system: SK-MEL-28
SK-MEL-2 = test system: SK-MEL-2
SK-MEL-5 = test system: SK-MEL-5
SK-OV-3 = test system: SK-OV-3
SN12C = test system: SN12C
SNB-19 = test system: SNB-19
SNB-75 = test system: SNB-75
SR = test system: SR
SW-620 = test system: SW-620
T47D = test system: T47D
TK-10 = test system: TK-10
U-251 = test system: U-251
UACC-257 = test system: UACC-257
UACC-62 = test system: UACC-62
UO-31 = test system: UO-31
EKVX = test system: EKVX
HL-60 = test system: HL-60
LOX IMVI = test system: LOX IMVI
MDA-N = test system: MDA-N

For `O=C(NNC(=S)Nc1ccc(Br)cc1)c1cc(-c2ccccc2)nc2ccccc12`, the GI50 (786-0) was 19 µM (inactive), the GI50 (A498) was 13.8 µM (inactive) and the GI50 (A549) was 21 µM (inactive). The GI50 (ACHN) was 34.8 µM (inactive), the GI50 (BT-549) was 24.5 µM (inactive) and the GI50 (CAKI-1) was 29.8 µM (inactive). The GI50 (CCRF-CEM) was 22.1 µM (inactive), the GI50 (COLO 205) was 22.6 µM (inactive) and the GI50 (DU-145) was 19.9 µM (inactive). The GI50 (HCC 2998) was 16.8 µM (inactive), the GI50 (HCT-116) was 16.7 µM (inactive) and the GI50 (HCT-15) was 24 µM. For the same compound, the GI50 (HOP-62) was 20 µM (inactive), the GI50 (HOP-92) was 20 µM (inactive) and the GI50 (HT-29) was 32.1 µM (inactive). The GI50 (Hs-578T) was 30.2 µM (inactive), the GI50 (IGROV-1) was 37.8 µM (inactive) and the GI50 (K562) was 25.2 µM (inactive). The GI50 (KM12) was 29.9 µM (inactive), the GI50 (M14) was 17 µM (inactive) and the GI50 (MCF7) was 18.4 µM (inactive). The GI50 (MDA-MB-231) was 18.6 µM (inactive), the GI50 (MDA-MB-435) was 17.1 µM (inactive) and the GI50 (MOLT-4) was 22.1 µM (inactive). The GI50 (Malme-3M) was 17.3 µM (inactive), the GI50 (NCI-H226) was 24.3 µM (inactive) and the GI50 (NCI-H23) was 23.6 µM (inactive). For the same compound, the GI50 (NCI-H460) was 20.8 µM (inactive), the GI50 (NCI-H522) was 22.2 µM (inactive) and the GI50 (NCI/ADR-RES) was 18.6 µM (inactive). The GI50 (OVCAR-3) was 17 µM (inactive), the GI50 (OVCAR-4) was 19.8 µM (inactive) and the GI50 (OVCAR-5) was 24.9 µM (inactive). For the same compound, the GI50 (OVCAR-8) was 23.1 µM (inactive), the GI50 (PC-3) was 20.1 µM (inactive) and the GI50 (RPMI-8226) was 14.3 µM (inactive). For the same compound, the GI50 (RXF 393) was 18.4 µM (inactive), the GI50 (SF-268) was 33.3 µM (inactive) and the GI50 (SF-295) was 19.2 µM (inactive). For the same compound, the GI50 (SF-539) was 16.6 µM (inactive), the GI50 (SK-MEL-28) was 21.1 µM (inactive) and the GI50 (SK-MEL-2) was 20 µM (inactive). For the same compound, the GI50 (SK-MEL-5) was 15.8 µM (inactive), the GI50 (SK-OV-3) was 25.2 µM (inactive) and the GI50 (SN12C) was 19.1 µM (inactive). For the same compound, the GI50 (SNB-19) was 27.2 µM (inactive), the GI50 (SNB-75) was 29.2 µM (inactive) and the GI50 (SR) was 20.4 µM (inactive). For the same compound, the GI50 (SW-620) was 21.2 µM (inactive), the GI50 (T47D) was 17.1 µM (inactive) and the GI50 (TK-10) was 14.9 µM (inactive). The GI50 (U-251) was 16.2 µM (inactive), the GI50 (UACC-257) was 23.2 µM (inactive) and the GI50 (UACC-62) was 20 µM (inactive). For the same compound, the GI50 (UO-31) was 17.1 µM (inactive).
`C=C1CCCCCCCCC/C=C/1SCCCSC` was tested, and the GI50 (786-0) was > 100 µM (inactive), the GI50 (A498) was > 100 µM (inactive) and the GI50 (A549) was > 100 µM (inactive). For the same compound, the GI50 (ACHN) was > 100 µM (inactive), the GI50 (CAKI-1) was > 100 µM (inactive) and the GI50 (COLO 205) was > 100 µM (inactive). The GI50 (DU-145) was > 100 µM (inactive), the GI50 (EKVX) was > 100 µM (inactive) and the GI50 (HCC 2998) was > 100 µM (inactive). For the same compound, the GI50 (HCT-116) was > 100 µM (inactive), the GI50 (HCT-15) was greater than 100 µM and the GI50 (HL-60) was > 100 µM (inactive). The GI50 (HOP-62) was > 100 µM (inactive), the GI50 (HOP-92) was > 100 µM (inactive) and the GI50 (HT-29) was > 100 µM (inactive). For the same compound, the GI50 (Hs-578T) was > 100 µM (inactive), the GI50 (IGROV-1) was > 100 µM (inactive) and the GI50 (K562) was > 100 µM (inactive). The GI50 (KM12) was > 100 µM (inactive), the GI50 (LOX IMVI) was > 100 µM (inactive) and the GI50 (M14) was > 100 µM (inactive). The GI50 (MCF7) was > 100 µM (inactive), the GI50 (MDA-MB-231) was > 100 µM (inactive) and the GI50 (MDA-MB-435) was > 100 µM (inactive). The GI50 (MDA-N) was > 100 µM (inactive), the GI50 (MOLT-4) was > 100 µM (inactive) and the GI50 (Malme-3M) was > 100 µM (inactive). The GI50 (NCI-H226) was > 100 µM (inactive), the GI50 (NCI-H23) was > 100 µM (inactive) and the GI50 (NCI-H460) was > 100 µM (inactive). The GI50 (NCI-H522) was > 100 µM (inactive), the GI50 (NCI/ADR-RES) was > 100 µM (inactive) and the GI50 (OVCAR-3) was > 100 µM (inactive). For the same compound, the GI50 (OVCAR-4) was > 100 µM (inactive), the GI50 (OVCAR-5) was > 100 µM (inactive) and the GI50 (OVCAR-8) was > 100 µM (inactive). For the same compound, the GI50 (PC-3) was > 100 µM (inactive), the GI50 (RPMI-8226) was > 100 µM (inactive) and the GI50 (RXF 393) was > 100 µM (inactive). For the same compound, the GI50 (SF-268) was > 100 µM (inactive), the GI50 (SF-295) was > 100 µM (inactive) and the GI50 (SF-539) was > 100 µM (inactive). For the same compound, the GI50 (SK-MEL-28) was > 100 µM (inactive), the GI50 (SK-MEL-2) was > 100 µM (inactive) and the GI50 (SK-MEL-5) was > 100 µM (inactive). For the same compound, the GI50 (SK-OV-3) was > 100 µM (inactive), the GI50 (SN12C) was > 100 µM (inactive) and the GI50 (SNB-19) was > 100 µM (inactive). The GI50 (SR) was > 100 µM (inactive), the GI50 (SW-620) was > 100 µM (inactive) and the GI50 (T47D) was > 100 µM (inactive). For the same compound, the GI50 (TK-10) was > 100 µM (inactive), the GI50 (U-251) was > 100 µM (inactive) and the GI50 (UACC-257) was > 100 µM (inactive). The GI50 (UACC-62) was > 100 µM (inactive) and the GI50 (UO-31) was > 100 µM (inactive).
